The source of these data is ChEMBL document CHEMBL5291721, “A preclinical secondary pharmacology resource illuminates target-adverse drug reaction associations of marketed drugs” (Nat Commun, 2023).

Experiment [1] addresses Sodium-dependent dopamine transporter (Homo sapiens, UniProt Q01959).
Experiment [2] concerns the target 5-hydroxytryptamine receptor 2B (Homo sapiens, UniProt P41595). The experiment is classed as functional, cell-based.
In experiment [3] the target is T1, Type-1 angiotensin II receptor (Homo sapiens, UniProt P30556).
T1 sequence (P30556 whole entry): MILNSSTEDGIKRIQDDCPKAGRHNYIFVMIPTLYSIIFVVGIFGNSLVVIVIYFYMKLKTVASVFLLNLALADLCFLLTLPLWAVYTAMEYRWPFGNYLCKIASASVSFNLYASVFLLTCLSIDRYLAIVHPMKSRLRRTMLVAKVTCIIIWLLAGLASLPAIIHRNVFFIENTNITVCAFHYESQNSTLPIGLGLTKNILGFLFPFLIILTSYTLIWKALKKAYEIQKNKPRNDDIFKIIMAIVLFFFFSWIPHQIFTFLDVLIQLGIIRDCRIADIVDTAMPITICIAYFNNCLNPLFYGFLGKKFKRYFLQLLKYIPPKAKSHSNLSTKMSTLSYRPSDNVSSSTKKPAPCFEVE

The target of experiment [4] is T2, Muscarinic acetylcholine receptor M2 (Homo sapiens, UniProt P08172).
T2 sequence (P08172 whole entry): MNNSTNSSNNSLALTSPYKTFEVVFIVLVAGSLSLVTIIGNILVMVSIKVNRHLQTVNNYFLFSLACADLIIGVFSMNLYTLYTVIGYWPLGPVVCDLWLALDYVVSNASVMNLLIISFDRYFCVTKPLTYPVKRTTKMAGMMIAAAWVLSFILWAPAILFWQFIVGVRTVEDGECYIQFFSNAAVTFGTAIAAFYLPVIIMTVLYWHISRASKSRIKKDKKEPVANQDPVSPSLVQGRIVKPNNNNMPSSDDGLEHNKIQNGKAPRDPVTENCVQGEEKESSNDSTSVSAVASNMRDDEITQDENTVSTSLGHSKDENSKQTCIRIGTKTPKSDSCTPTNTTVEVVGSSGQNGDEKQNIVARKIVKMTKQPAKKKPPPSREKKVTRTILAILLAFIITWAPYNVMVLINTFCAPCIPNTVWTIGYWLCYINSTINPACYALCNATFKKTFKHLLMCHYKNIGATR
The experiment is classed as functional, cell-based.

Experiment [5] addresses Beta-2 adrenergic receptor (Homo sapiens, UniProt P07550).
The target of experiment [6] is T3, Alpha-2A adrenergic receptor (Homo sapiens, UniProt P08913).
T3 sequence (P08913 whole entry): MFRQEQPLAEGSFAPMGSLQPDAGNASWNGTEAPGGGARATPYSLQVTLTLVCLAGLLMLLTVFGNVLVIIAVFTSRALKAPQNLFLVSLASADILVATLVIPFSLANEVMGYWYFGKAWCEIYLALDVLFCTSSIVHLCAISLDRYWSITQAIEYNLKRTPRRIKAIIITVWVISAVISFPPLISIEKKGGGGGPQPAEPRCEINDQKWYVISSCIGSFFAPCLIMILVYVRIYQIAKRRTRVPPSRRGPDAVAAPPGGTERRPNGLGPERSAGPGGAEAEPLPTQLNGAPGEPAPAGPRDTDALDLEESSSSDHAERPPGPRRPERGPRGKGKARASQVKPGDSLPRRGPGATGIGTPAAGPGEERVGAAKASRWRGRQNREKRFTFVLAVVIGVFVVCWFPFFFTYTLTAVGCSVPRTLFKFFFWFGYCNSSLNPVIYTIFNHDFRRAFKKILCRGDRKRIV
Format: functional, cell-based.

The target in another experiment is Cannabinoid receptor 1 (Homo sapiens, UniProt P21554). Format: functional, cell-based.
The target of another experiment is T4, Adenosine receptor A1 (Homo sapiens, UniProt P30542).
T4 sequence (P30542 whole entry): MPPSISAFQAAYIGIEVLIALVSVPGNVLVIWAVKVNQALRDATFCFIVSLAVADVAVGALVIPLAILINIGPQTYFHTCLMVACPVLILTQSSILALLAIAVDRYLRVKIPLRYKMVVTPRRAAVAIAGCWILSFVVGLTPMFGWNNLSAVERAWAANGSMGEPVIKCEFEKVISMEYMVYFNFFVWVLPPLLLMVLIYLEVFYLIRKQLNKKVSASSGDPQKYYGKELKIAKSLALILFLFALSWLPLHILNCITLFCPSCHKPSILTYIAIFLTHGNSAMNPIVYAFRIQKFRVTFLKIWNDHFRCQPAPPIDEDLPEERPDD

Another experiment addresses T5, Glucocorticoid receptor (Homo sapiens, UniProt P04150).
T5 sequence (P04150 whole entry): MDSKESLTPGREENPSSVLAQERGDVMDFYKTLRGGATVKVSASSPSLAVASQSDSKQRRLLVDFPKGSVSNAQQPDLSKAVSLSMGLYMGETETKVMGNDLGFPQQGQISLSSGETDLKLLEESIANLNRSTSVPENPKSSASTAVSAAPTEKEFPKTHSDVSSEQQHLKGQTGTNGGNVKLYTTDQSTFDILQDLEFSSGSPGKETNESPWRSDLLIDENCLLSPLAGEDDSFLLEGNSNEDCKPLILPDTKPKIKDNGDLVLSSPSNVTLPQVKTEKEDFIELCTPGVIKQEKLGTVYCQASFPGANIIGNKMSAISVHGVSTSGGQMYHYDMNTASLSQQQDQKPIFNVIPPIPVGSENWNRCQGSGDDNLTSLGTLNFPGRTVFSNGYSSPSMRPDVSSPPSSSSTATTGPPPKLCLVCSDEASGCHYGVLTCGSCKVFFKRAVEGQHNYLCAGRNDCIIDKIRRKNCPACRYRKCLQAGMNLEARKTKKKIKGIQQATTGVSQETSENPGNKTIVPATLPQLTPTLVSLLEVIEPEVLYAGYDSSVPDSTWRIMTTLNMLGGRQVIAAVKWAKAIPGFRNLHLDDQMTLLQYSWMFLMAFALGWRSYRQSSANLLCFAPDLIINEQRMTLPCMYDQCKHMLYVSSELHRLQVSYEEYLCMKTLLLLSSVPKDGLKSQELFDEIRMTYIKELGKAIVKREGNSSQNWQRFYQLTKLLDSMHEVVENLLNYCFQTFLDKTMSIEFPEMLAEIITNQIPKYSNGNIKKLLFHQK
Also: assay procedure not described here.

Chain of Cannabinoid receptor 1 (P21554 whole entry): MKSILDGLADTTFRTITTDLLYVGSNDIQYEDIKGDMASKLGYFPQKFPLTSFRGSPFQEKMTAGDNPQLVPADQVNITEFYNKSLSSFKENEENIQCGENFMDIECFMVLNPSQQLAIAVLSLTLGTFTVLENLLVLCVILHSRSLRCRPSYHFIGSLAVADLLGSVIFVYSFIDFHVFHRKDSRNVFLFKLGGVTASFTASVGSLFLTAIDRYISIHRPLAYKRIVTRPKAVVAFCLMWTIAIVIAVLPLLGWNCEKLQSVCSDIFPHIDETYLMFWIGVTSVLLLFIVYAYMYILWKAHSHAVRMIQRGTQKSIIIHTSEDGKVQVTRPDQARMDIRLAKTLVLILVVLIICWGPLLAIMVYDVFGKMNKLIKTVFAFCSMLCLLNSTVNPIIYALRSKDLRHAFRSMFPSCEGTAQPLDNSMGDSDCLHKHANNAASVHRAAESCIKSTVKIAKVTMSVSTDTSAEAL
Chain of Sodium-dependent dopamine transporter (Q01959 whole entry): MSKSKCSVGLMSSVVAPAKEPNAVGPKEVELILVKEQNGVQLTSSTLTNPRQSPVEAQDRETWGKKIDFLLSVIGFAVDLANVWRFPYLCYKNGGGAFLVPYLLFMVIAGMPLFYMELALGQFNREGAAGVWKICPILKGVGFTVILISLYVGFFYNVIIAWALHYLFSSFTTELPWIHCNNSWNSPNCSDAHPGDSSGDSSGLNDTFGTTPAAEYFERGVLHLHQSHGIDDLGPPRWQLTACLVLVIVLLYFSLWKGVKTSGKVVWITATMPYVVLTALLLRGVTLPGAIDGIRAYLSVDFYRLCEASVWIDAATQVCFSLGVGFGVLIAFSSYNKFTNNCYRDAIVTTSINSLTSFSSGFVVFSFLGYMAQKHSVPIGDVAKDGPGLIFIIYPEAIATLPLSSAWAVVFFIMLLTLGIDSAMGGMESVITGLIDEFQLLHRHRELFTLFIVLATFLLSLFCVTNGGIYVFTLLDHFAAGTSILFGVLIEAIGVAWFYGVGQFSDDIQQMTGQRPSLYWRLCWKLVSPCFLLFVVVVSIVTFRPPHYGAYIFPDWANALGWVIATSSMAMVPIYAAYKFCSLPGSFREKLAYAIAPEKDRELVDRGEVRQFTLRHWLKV
Chain of 5-hydroxytryptamine receptor 2B (P41595 whole entry): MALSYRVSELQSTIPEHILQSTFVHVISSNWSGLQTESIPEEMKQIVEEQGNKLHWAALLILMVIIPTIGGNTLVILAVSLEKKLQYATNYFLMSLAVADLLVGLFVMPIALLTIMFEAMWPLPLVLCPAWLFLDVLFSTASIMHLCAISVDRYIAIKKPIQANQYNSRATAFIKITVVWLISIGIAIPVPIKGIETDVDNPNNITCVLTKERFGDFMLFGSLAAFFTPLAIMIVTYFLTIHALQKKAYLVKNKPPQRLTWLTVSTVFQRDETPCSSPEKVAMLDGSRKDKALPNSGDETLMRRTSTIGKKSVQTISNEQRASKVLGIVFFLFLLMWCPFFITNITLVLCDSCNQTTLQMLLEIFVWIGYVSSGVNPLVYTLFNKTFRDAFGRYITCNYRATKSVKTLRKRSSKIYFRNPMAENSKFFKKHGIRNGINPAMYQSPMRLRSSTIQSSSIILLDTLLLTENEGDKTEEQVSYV
Chain of Beta-2 adrenergic receptor (P07550 whole entry): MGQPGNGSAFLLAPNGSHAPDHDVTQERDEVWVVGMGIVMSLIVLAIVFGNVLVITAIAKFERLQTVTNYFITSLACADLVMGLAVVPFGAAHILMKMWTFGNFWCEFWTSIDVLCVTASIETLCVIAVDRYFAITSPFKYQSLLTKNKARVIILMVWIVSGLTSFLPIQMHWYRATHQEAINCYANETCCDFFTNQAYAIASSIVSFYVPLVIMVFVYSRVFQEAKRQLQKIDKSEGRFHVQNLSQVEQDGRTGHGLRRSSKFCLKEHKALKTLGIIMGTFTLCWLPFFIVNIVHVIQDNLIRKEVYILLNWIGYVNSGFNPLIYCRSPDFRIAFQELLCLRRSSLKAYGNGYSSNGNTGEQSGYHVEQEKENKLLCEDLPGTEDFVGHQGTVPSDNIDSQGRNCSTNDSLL

In general, AC50 refers to the midpoint of the concentration-response curve, whichever way the signal moves. The low end stands for greater potency, the high end for weaker potency. Consider `CNS(=O)(=O)Cc1ccc2[nH]cc(CCN(C)C)c2c1`, for which the AC50 was > 10 µM in experiment [1]; > 10 µM in [2]; > 30 µM in experiment [3]; > 30 µM in experiment [4]; > 10 µM in [5]; > 30 µM in experiment [6]. In addition, the AC50 at Cannabinoid receptor 1, on Adenosine receptor A1 and on Glucocorticoid receptor was > 30 µM each time.

In the case of `COc1ccccc1OCCNCC(O)c1ccc(C)c(S(N)(=O)=O)c1` (configuration not stated) [AMOSULALOL], the AC50 was > 30 µM in experiment [1]; 1.6 µM in experiment [2]; > 30 µM in [3]; > 30 µM in experiment [4]; 0.1 µM in experiment [5]; > 30 µM in experiment [6]. In addition, the concentration at half-maximal activity (AC50) on Cannabinoid receptor 1, at Adenosine receptor A1 and on Glucocorticoid receptor was > 30 µM throughout.

Regarding `Nc1nc(N)nc(-c2cc(Cl)ccc2Cl)n1` [IRSOGLADINE], the AC50 was > 30 µM in experiment [1]; 22 µM in experiment [2]; > 30 µM in experiment [3]; > 30 µM in experiment [4]; > 30 µM in [5]; > 30 µM in experiment [6]. Further, the concentration at half-maximal activity (AC50) on Cannabinoid receptor 1, on Adenosine receptor A1 and on Glucocorticoid receptor was > 30 µM throughout.

For the compound `O=C(O)/C=C/c1ccc(Cn2ccnc2)cc1` [OZAGREL], the AC50 (in [1]; in experiment [2]; in experiment [3]; in experiment [4]; in experiment [6]; at Cannabinoid receptor 1) was > 30 µM throughout. The half-maximal activity concentration (AC50) on Adenosine receptor A1 and at Glucocorticoid receptor was > 30 µM throughout.

For `Clc1ccc(CCCOCCCN2CCCCC2)cc1` [PITOLISANT], the AC50 in experiment [1] is 8.5 µM; in [2], > 30 µM; in [3], > 30 µM; in experiment [4], 15 µM; at Cannabinoid receptor 1, > 30 µM; at Adenosine receptor A1, > 30 µM. The AC50 on Glucocorticoid receptor is > 30 µM.

Turning to `CCC(C(=O)O)c1ccc(N2Cc3ccccc3C2=O)cc1` (configuration not stated) [INDOBUFEN], the AC50 in experiment [1], in [2], in experiment [3], in experiment [4], in experiment [5] and in [6] was > 30 µM each time. Moreover, the concentration at half-maximal activity (AC50) on Cannabinoid receptor 1, at Adenosine receptor A1 and at Glucocorticoid receptor was > 30 µM in each case.

Regarding `CCC1(CC)C(=O)NCC(C)C1=O` (configuration not stated) [METHYPRYLON], the AC50 (in experiment [1]; in experiment [2]; in experiment [3]; in experiment [4]; in experiment [6]; at Cannabinoid receptor 1) was > 30 µM throughout. In addition, the half-maximal activity concentration (AC50) on Adenosine receptor A1 and on Glucocorticoid receptor was > 30 µM each time.

On to `O=C(NCCNCC(O)COc1ccc(O)cc1)N1CCOCC1` (configuration not stated) [XAMOTEROL], for which the AC50 (in experiment [1]; in experiment [2]; in experiment [3]; in experiment [4]; in [6]; at Cannabinoid receptor 1) was > 30 µM throughout. For the same compound, the AC50 at Adenosine receptor A1 and on Glucocorticoid receptor was > 30 µM throughout.

`CN1C(=O)C(O)N=C(c2ccccc2Cl)c2cc(Cl)ccc21` (configuration not stated) [LORMETAZEPAM]: the AC50 is > 30 µM in experiment [1]; > 30 µM in [2]; > 30 µM in experiment [3]; > 30 µM in [5]; 16 µM in experiment [6]; > 30 µM on Cannabinoid receptor 1. In addition, the concentration at half-maximal activity (AC50) at Adenosine receptor A1 and at Glucocorticoid receptor was > 30 µM throughout.

For the compound `CO/N=C(\C(=O)N[C@@H]1C(=O)N2C(C(=O)O)=C(CSc3nnnn3C)CS[C@H]12)c1csc(N)n1` [CEFMENOXIME], the concentration at half-maximal activity (AC50) (in experiment [1]; in experiment [2]; in [3]; in experiment [4]; in experiment [6]; on Cannabinoid receptor 1) was > 30 µM throughout. For the same compound, the half-maximal activity concentration (AC50) on Adenosine receptor A1 and on Glucocorticoid receptor was > 30 µM each time.

In the case of `CC(C)OC(=O)CCC/C=C\C[C@@H]1[C@@H](CC[C@@H](O)CCc2ccccc2)[C@H](O)C[C@@H]1O` [LATANOPROST], the AC50 (in experiment [1]; in experiment [2]; in experiment [3]; in experiment [4]; in experiment [6]; on Cannabinoid receptor 1) was > 30 µM each time. Further, the AC50 on Adenosine receptor A1 and on Glucocorticoid receptor was > 30 µM in each case.

Take `C=CCC1(CC(C)C)C(=O)NC(=O)NC1=O` [BUTALBITAL]: the concentration at half-maximal activity (AC50) in experiment [1] is > 10 µM; in experiment [2], > 10 µM; in experiment [3], > 30 µM; in experiment [4] it was > 10 µM; in experiment [5], > 10 µM; in [6], > 10 µM. Further, the half-maximal activity concentration (AC50) on Adenosine receptor A1 and at Glucocorticoid receptor was > 10 µM throughout.

Take `NCC(=O)CCC(=O)O` [AMINOLEVULINIC ACID]: the AC50 (in experiment [1]; in experiment [3]; in experiment [4]; in [6]; at Cannabinoid receptor 1; on Adenosine receptor A1) was > 30 µM each time. In addition, the AC50 on Glucocorticoid receptor is > 30 µM.

For `CC(C[N+](C)(C)C)OC(N)=O` (configuration not stated) [BETHANECHOL], the AC50 in experiment [1] was > 10 µM; in experiment [2], > 10 µM; in experiment [3], > 10 µM; in experiment [5] it was > 10 µM; in experiment [6], > 10 µM; at Cannabinoid receptor 1 it was > 30 µM. For the same compound, the AC50 at Adenosine receptor A1 and at Glucocorticoid receptor was > 10 µM throughout.

`CCCCCCOc1ccccc1C(N)=O` [EXALAMIDE]: the AC50 was 14 µM in [1]; 1.1 µM in [2]; > 30 µM in experiment [3]; > 30 µM in [5]; 13 µM in [6]; > 30 µM on Cannabinoid receptor 1. For the same compound, the half-maximal activity concentration (AC50) on Adenosine receptor A1 and on Glucocorticoid receptor was > 30 µM throughout.
